Results published in PubChem BioAssay (NCI).
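Each compound was tested at five concentrations against cells in 96-well plates for 48 hours. GI50 marks 50% less growth. TGI marks complete inhibition of growth.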

Legend:
Assay in all cases: NCI-60 cell line screen, 48 h
TK-10 renal = test system: TK-10 renal
U251 CNS = test system: U251 CNS
A549 NSCLC = test system: A549 NSCLC
HOP-92 NSCLC = test system: HOP-92 NSCLC
SW-620 colon = test system: SW-620 colon
ACHN renal = test system: ACHN renal
SN12C renal = test system: SN12C renal
IGROV1 ovarian = test system: IGROV1 ovarian
HL-60(TB) leukemia = test system: HL-60(TB) leukemia
UACC-257 melanoma = test system: UACC-257 melanoma

SMILES	GI50 (TK-10 renal) [µM]	TGI (TK-10 renal) [µM]	GI50 (U251 CNS) [µM]	TGI (U251 CNS) [µM]	GI50 (A549 NSCLC) [µM]	TGI (A549 NSCLC) [µM]	GI50 (HOP-92 NSCLC) [nM]	TGI (HOP-92 NSCLC) [µM]	GI50 (SW-620 colon) [nM]	TGI (SW-620 colon) [µM]	GI50 (ACHN renal) [nM]	TGI (ACHN renal) [µM]	GI50 (SN12C renal) [nM]	TGI (SN12C renal) [µM]	GI50 (IGROV1 ovarian) [nM]	TGI (IGROV1 ovarian) [µM]	GI50 (HL-60(TB) leukemia) [nM]	TGI (HL-60(TB) leukemia) [µM]	GI50 (UACC-257 melanoma) [nM]	TGI (UACC-257 melanoma) [µM]
NS(=O)(=O)c1ccc(-c2ccc3c(NC(=O)C4CC4)n[nH]c3c2)cc1	> 25	> 25	> 25	> 25	> 25	> 25	16600	> 25	> 25000	> 25	> 25000	> 25	> 25000	> 25	> 25000	> 25	> 25000	> 25	> 25000	> 25
O=C(CCc1nc(=S)[nH][nH]1)Nc1ccccc1Cl	–	> 100	–	> 100	–	> 100	–	> 100	–	35.6	–	> 100	–	> 100	–	> 100	–	> 100	–	> 100
CCCC1=C(CC)C(C(=O)Nc2c(C)cccc2C)=NC(S)N1 (centres undefined)	–	> 100	–	> 100	–	> 100	–	> 100	–	> 100	–	> 100	–	> 100	–	> 100	–	> 100	–	> 100
CNC(=S)/N=C(\N)N(C)C	–	> 100	–	> 100	–	> 100	–	> 100	–	> 100	–	> 100	–	> 100	–	> 100	–	> 100	–	> 10
CN1CCc2nc(N)nc(-c3nc(N)nc4c3CN(C)CC4)c2C1	–	> 100	–	> 100	–	> 100	–	> 100	–	> 100	–	> 100	–	> 100	–	> 100	–	> 100	–	> 100
O=C(c1cccc2ccccc12)N1CCC(C2CCN(C(=O)c3cccc4ccccc34)CC2)CC1	–	> 100	–	> 100	–	> 100	–	> 100	–	> 100	–	> 100	–	> 100	–	> 100	–	> 100	–	> 100
c1ccc(C2N3CCCCC3[C@@H]3c4[nH]c5ccccc5c4CCN23)nc1 (some centres undefined)	–	> 100	–	> 100	–	> 100	–	> 100	–	> 100	–	> 100	–	> 100	–	> 100	–	> 100	–	> 100
Cc1ccc(NC(=O)c2cccc(C(C)(C)C#N)c2)cc1Nc1ccc2ncn(C)c(=O)c2c1	2.9	> 100	7.19	> 100	8.16	> 100	287	4.98	1010	> 100	1730	> 100	4940	> 100	1490	> 100	54.7	13.9	40.5	> 100
CCOC(=O)C1CCN(S(=O)(=O)/N=C2/NC(=O)NC2=C(Cl)Cl)CC1	1.25	> 100	1.9	3.47	4.82	17.7	1620	3.29	2090	4.37	1830	3.32	1550	3.1	1910	3.93	1740	4.34	2380	7.24
CN(C)CCNc1ccc(CO)c2oc3ccc(O)cc3c(=O)c12	–	69	–	45.7	–	63.9	–	33.4	–	61.3	–	44	–	> 66.3	–	57.2	–	30.9	–	17.4
Nc1ccccc1/C(O)=C1/CCOC1=O	–	> 100	–	> 100	–	> 100	–	> 100	–	> 100	–	> 100	–	> 100	–	> 100	–	> 100	–	> 100
COc1ccc2[nH]c3c4[nH]c5ccc(OC)cc5c4c4c(c3c2c1)C(=O)NC4=O	> 7.63	> 25	> 8.42	> 25	> 9.75	> 25	> 25000	> 25	> 25000	> 25	> 6710	> 25	1190	> 25	> 25000	> 25	> 21100	> 25	> 25000	> 25
Nc1ccccc1C#C/C=C\C#Cc1ccccc1N	8.33	36.1	13.9	32.2	41.5	> 100	1200	12.2	2910	18.4	19900	50.9	21800	54.4	34600	> 100	4180	33.7	41300	> 100
COCC[C@H]1CCC/C=C/[C@@H]2C[C@H](O)C[C@H]2[C@H](O)/C=C/C(=O)O1	0.18	0.63	0.166	> 100	0.113	> 100	214	0.888	57.2	0.258	319	> 100	274	> 100	331	> 29	273	0.87	35	–
O=C1C2C3C=C4c5ccccc5N(c5ccccc5)C4(C2C(=O)N1c1ccc([N+](=O)[O-])cc1)[C@H]1C(=O)N(c2ccc([N+](=O)[O-])cc2)C(=O)[C@@H]31 (some centres undefined)	–	> 100	–	> 100	–	> 100	–	> 100	–	> 100	–	> 100	–	> 100	–	> 100	–	> 100	–	> 100
COC(=O)Nc1nc2ccc(C3(c4ccc(F)cc4)OCCO3)cc2[nH]1	15.7	> 100	0.398	> 100	0.417	> 100	268	58	311	> 100	917	> 66.6	584	> 100	1290	> 100	242	0.765	1280	> 100
